Experimental data taken from patent US6797824B2, “Certain 4-aminomethyl-2-substituted imidazole derivatives and 2-aminomethyl-4-substituted imidazole derivatives; new classes of dopamine receptor subtype specific ligands” (Neurogen Corporation, priority 1990, dated 2004).
pKi: −log10 of the molar value. Counter-ions that a name gives are not always drawn.

Columns and labels:
[1] = target: T1, human dopamine D4 receptor subtype (Homo sapiens, UniProt P21917); assay: D4 receptor binding, displacement of [3H]YM-09151-2
T1 construct: expressed in transfected cells
T1 sequence (P21917 1-419): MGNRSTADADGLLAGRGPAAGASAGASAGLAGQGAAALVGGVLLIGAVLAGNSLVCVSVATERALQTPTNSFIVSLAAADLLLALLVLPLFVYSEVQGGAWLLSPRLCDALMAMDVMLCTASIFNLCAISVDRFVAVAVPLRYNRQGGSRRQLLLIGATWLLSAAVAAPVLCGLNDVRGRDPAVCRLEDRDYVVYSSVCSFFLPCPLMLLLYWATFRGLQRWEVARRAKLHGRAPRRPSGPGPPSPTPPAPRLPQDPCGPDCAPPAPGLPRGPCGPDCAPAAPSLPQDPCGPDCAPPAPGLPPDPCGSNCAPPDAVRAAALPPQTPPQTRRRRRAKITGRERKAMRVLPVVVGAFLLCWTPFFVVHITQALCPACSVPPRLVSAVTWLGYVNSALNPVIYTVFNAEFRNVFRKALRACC
Procedure: Assay for D4 Receptor Binding Activity
Clonal cell lines expressing the human dopamine D4 receptor subtype were harvested in PBS and the cells centrifuged and the pellets stored at −80° C. until used in the binding assay. […] The homogenate is centrifuged at 48000×g for 10 minutes at 4° C. The resulting pellet is resuspended in fresh buffer and centrifuged again. After resuspension of the pellet in fresh buffer at […] aliquot is removed for protein determination. […] Incubations were carried out for 60 minutes at 25° C. in the presence of 0.1 nM [^3H] […] Non-specific binding was determined with 1 mM spiperone and radioactivity determined by counting in an LKB beta counter. Binding parameters were determined by non-linear least squares regression analysis, from which the inhibition constant (ki) could be calculated for each test compound.

[2] = tested on: male Sprague Dawley rats (learning and memory); assay: Step-down passive avoidance task; assay type: in vivo, rat
Procedure: Non-naive male Sprague Dawley rats (SASCO St. Louis) weighing between 2000-300 grams, were housed in groups of three in a temperature and humidity controlled vivarium having a 12 hour light/dark cycle. Animals had ad lib access to food and water.
Both drugs were administered intravenously 5 minutes prior to training in both learning tasks.
Step-Down Passive Avoidance: A step-down passive avoidance platform 4 (cm)×7 (cm) was placed in the center of an electrified gris floor, which was contained within a large (45×45×50 cm) white translucent plexiglas enclosure having a closable lid. The bars of the grip were spaced 1.5 cm apart and were wired to a BRS-LVE shock generator/scrambler which was set to deliver a 2 mA 6 second shock. Four passive avoidance boxes were automated by customer software (Labview) and commercial interface modules (National Instruments) connected to a computer. The timing and delivery of the shock as well as the latency to steo down and the number of trials taken to reach criterion during raining was under the control of the computer. All testing was done in the presence of 62 db white noise. […]
Retention Testing: Testing was conduced approximately 24 hours after training, Drug-free animals were placed on the platform in the box in which they were trained and the latency to step down onto the unshocked floor was recorded for one trial. […]

[3] = target: T2, dopamine D4 receptors in rat hippocampus (Rattus norvegicus, UniProt P30729); assay: Binding to D4 receptors in rat hippocampus
T2 construct: from tissue; host or cells: rat hippocampus (from the head of the results)
T2 sequence (P30729 1-387): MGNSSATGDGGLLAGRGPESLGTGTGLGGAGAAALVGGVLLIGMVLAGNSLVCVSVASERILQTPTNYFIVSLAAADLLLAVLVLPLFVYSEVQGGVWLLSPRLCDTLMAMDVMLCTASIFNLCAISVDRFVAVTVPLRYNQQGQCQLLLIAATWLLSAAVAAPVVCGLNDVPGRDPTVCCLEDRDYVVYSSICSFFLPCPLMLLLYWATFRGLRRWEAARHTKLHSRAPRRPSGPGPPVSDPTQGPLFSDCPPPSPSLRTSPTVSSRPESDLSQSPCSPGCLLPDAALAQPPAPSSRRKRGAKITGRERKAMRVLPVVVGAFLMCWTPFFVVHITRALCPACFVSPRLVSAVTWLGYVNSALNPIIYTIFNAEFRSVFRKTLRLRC

[4] = target: T3, dopamine D4 receptors in human hippocampus (Homo sapiens, UniProt P21917); assay: Binding to D4 receptors in human hippocampus
T3 construct: from tissue; host or cells: human hippocampus (from the head of the results)
T3 sequence (P21917 1-419): T1 sequence (P21917 1-419)

## c1ccc(-c2ncc(CN3CCN(c4ncccn4)CC3)[nH]2)cc1 [Compound 23, 2-Phenyl-4(5)-[(4-(2-pyrimidinyl)-piperazin-1-yl)methyl]-imidazole dihydrochloride]
[1]
  pKi: 8.57
[2]; 0.25 mg/kg i.v., retest about 24 h after training
  passive avoidance retention: time on platform during retest vs vehicle: significantly longer time
[2]; 0.03-1.0 mg/kg i.v. 5 min prior to training
  passive avoidance acquisition vs vehicle group: no significant differences
[3]
  binding to dopamine D4 receptors, functional type: antagonists binding to dopamine D4 receptors
[4]
  binding to dopamine D4 receptors, functional type: antagonists binding to dopamine D4 receptors

## c1ccc(-c2ncc(CN3CCN(c4ccccc4)CC3)[nH]2)cc1 [Compound 45, 2-Phenyl-4(5)-[(4-phenyl-piperazin-1-yl)methyl]-imidazole]
[1]
  pKi: 8.30
[3]
  binding to dopamine D4 receptors, functional type: antagonists binding to dopamine D4 receptors
[4]
  binding to dopamine D4 receptors, functional type: antagonists binding to dopamine D4 receptors
